For the assay, the system named is P. falciparum 3D7 growth, pLDH absorbance. The experiment in a line: P. falciparum 3D7 growth inhibition, dose response, strain 3D7 (AID 2305).

The structures appear in SMILES notation.

For the compound `Cc1ccc(/C=C/C(=O)NCCCCCN2CCC(c3c[nH]c4ccccc34)CC2)cc1`, the IC50 amounted to 1010 nM. In other words, the single-digit micromolar range.

In turn, `Cc1cccc2[nH]c(-c3ccc(-c4cccc(CN5CCCC5CN)c4)cc3)nc12` (stereo not drawn) gave an IC50 of 910 nM. The figure for `Cc1cccc2[nH]c(-c3ccc(-c4ccc(CNC(C)C)cc4)cc3)nc12` is 680 nM.

`Cc1cc(N[C@@H](Cc2ccccc2)C(=O)NC2CCCC2)nc(NCC2CCCCC2)n1`: the IC50 was 1170 nM.

The compound `CCc1c(CCNCCCCCCNCCc2ccc([N+](=O)[O-])cc2)ccc(OC)c1OC` returned an IC50 of 730 nM. Then `C/C=C/COc1ccc(-c2c(C)[nH]c(C)c(Cl)c2=O)cc1`, with 200 nM; and `C=CCc1c(C(=O)NCC23CC4CC(CC(C4)C2)C3)[nH]c2ccccc2c1=O`, with 1030 nM; and `CC(C)(C)c1ccc(CN2CCC(NC(=O)c3ccc(-c4ccccc4F)s3)CC2)cc1`, with 1200 nM. The figure for `Cc1cc(Nc2ccc(O)cc2)nc2cc(O)ccc12` is 760 nM; for `CS(=O)(=O)NCCCNCc1cccc(-c2ccc(-c3nc4ccc(C(F)(F)F)cc4[nH]3)s2)c1` it is 880 nM. Then `Cc1cc(NN=Cc2cccc(Cl)c2)c2ccc(F)cc2n1`, with 240 nM; and `CC(C)CN(c1nc(C(=O)NNC(=O)[C@H](CC2CC2)NC(=O)c2cc3cc(OCCN4CCCCC4)ccc3o2)cs1)C1CC1`, with 210 nM. `Oc1ccc2[nH]c(-c3cccs3)nc2c1CN1CCC(O)(c2ccccc2)CC1`: the IC50 was 780 nM. With `CC[C@H]1CN2CC[C@H]1C[C@H]2[C@H](O)c1cc(-c2ccccc2C(F)(F)F)nc2ccc(OC)cc12`, the IC50 was found to be 230 nM. This IC50 lies about 3.4-fold lower than the previous one. Then `COc1ccc(C(=O)NCC(C)(C)c2nc(-c3ccc(Cl)c(O)c3)c(-c3ccncc3)[nH]2)cc1OCCN(C(C)C)C(C)C`, with 640 nM. Consider `C[C@H](NC(=O)c1c(OC2CN(C(c3ccccc3)c3ccccc3)C2)c(-c2ccccc2)nc2ccccc12)C1CCCCC1`, for which the IC50 was 980 nM. The figure for `CNc1ccc(CNCc2ccc(-c3ccc(-c4nc5c(C)cccc5[nH]4)cc3)cc2)cc1` is 320 nM. The figure for `CCCc1cc(O)c2c3c(c(=O)oc2c1)CN(C)CC3` is 870 nM; for `O=C(/C=C/c1ccc(Cl)c(Cl)c1)NC1[C@@H]2CC[C@H]1CC(CN1CCC(c3c[nH]c4ccccc34)CC1)C2` (stereo partly drawn) it is 200 nM; for `CCc1cc2c(cc1CC)CC(NC[C@@H](O)c1ccc(O)c3[nH]c(=O)ccc13)C2` it is 1120 nM. The figure for `COc1ccccc1-c1sccc1C(=O)NC1(c2cc(Cl)cc(Cl)c2)CCCC1` is 940 nM; for `COC(=O)c1cc(NC(=O)Nc2ccc(Cn3ncc(N4CCCNCC4)c(Cl)c3=O)cc2)cc(C(=O)OC)c1` it is 710 nM; for `COc1ccc(CNCc2cccc(-c3ccc(-c4nc5c(C)cccc5[nH]4)cc3)c2)cc1` it is 240 nM. `COc1ccccc1NC(=O)Nc1ccc(-c2ccc(-c3nc4c(C)cccc4[nH]3)s2)cc1`: the IC50 was 160 nM. This IC50 is about 1.5-fold lower than that of the compound before.

The compound `CN(C)CCCn1cncc1-c1ccc2ncnc(Nc3ccc4c(cnn4Cc4ccccc4)c3)c2c1` registered an IC50 of 730 nM. This IC50 is about 4.6-fold higher than that of the compound before. The figure for `CCCOc1ccc(CNCCCCCCNCc2ccc(OCCC)c3ccccc23)c2ccccc12` is 410 nM; for `CN1CCN(Cc2cccc(-c3ccc4c(Nc5ccc(Oc6ccccc6)cc5)ccnc4c3)c2)CC1` it is 230 nM.

`Fc1cc(CN2CCCC2)ccc1OCCCN1CCN(c2cccc(Cl)c2Cl)CC1`: the IC50 was determined as 1040 nM. The figure for `CN(C)CCN(C)Cc1nc(-c2ccc3c(Nc4ccc(Oc5ccccc5)cc4)ccnc3c2)cs1` is 210 nM. The figure for `COc1ccc2nccc([C@@H](O)CN3CCC(NC(=O)c4[nH]c5ccccc5c4-c4ccccc4)CC3)c2c1` is 900 nM; for `Cn1cc(C2CCN(CCCCNC(=O)c3ccc(C(=O)Nc4ccc(C#N)cc4)cc3)CC2)c2ccccc21` it is 720 nM; for `CC(Cc1ccc(C(C)(C)C)cc1)NCC(O)c1ccccc1` (stereo not drawn) it is 1810 nM.

`CCCNCc1ccc(-c2ccc(CN(CCOC)C(=O)COc3ccccc3Cl)cc2)nc1` returned an IC50 of 910 nM. Compared with the last compound, the IC50 is about 2-fold lower. Take `COc1cc(Nc2nccn3c(-c4ccsc4)cnc23)cc(OC)c1OC`: the IC50 came out at 890 nM. The figure for `NC(N)=NN=Cc1c[nH]c2ccc(-c3ccccc3)cc12` is 530 nM; for `CCn1c(C)cc(C=C2SC(=Nc3ccccc3)NC2=O)c1C` it is 680 nM; for `CC(C)CCn1c(Sc2ccc(C#N)c([N+](=O)[O-])c2)nnc1-c1cccc(Cl)c1` it is 670 nM. The figure for `COc1ccc(-c2ccc(NC(=O)c3cccc(Cl)c3)cc2)cc1CN1CCCN(C)CC1` is 600 nM. Then `CC(C)CN(C)c1ncnc2c1nc(-c1cncc(C#N)c1)n2CCNCc1ccccc1`, with 1360 nM; and `O=C(c1cc(-c2ccccc2O)on1)N1CCN(C(c2ccccc2)c2ccccc2)CC1`, with 340 nM; and `COc1ccccc1CNC(=O)c1cc(Br)cc(N2CCN(c3ccncc3)CC2)c1`, with 950 nM.

Turning to `CO/C(=C\C=C\c1cc2cc(Cl)c(Cl)cc2[nH]1)C(=O)NCCCN1CCN(c2cccc(CCO)c2)CC1`, the IC50 amounted to 720 nM.

Take `CN1CCN(c2nc(NCCNc3ccc([N+](=O)[O-])cc3)c3ccccc3n2)CC1`: the concentration for half-maximal inhibition (IC50) was 1320 nM.

In general, IC50 refers to the point on the concentration scale where inhibition reaches its midpoint.

These data come from PubChem BioAssay AID2305 (GlaxoSmithKline (GSK), 2010).
